Legend:
[1] = test system: postmenopausal women with androgenetic alopecia; conditions: one-year trial; cited from earlier work
C3H mice = assay: Hair growth induction in C3H mice (mice entering anagen); assay type: in vivo
From the text: C3H female mice age 6-7 weeks of age were purchased from Taconic Farms (Germantown, N.Y.). Mice were housed in appropriately sized cages in an environmentally controlled room with a 12-hour light-12-hour dark photoperiod and supplied with food and water ad libitum. Animal care was based on the “Guide for the Care and Use of Laboratory Animals”, NIH Publication No. 85-23. Animals were acclimated for a week before study starts. Once all mice entered their prolonged telogen/resting phase (about 50-60 days long) of the hair cycle, they were clipped over the dorsal area about 1.5×5 cm (Wahl Clippers 8900 Series, Blade # 1086). Seven female mice per group were clipped while sedated with 2% induction and maintenance isoflurane and 0.5 L Oxygen. In addition to the 150 mg/ml Cotinus coggygria formulation, the treatment groups included a placebo, 5% Minoxidil as positive control and an untreated group to serve as control for natural hair growth initiation and to observe placebo effects. 200 μl of test materials were applied topically to the area daily, 5 days a week. Images were taken at the first signs of anagen/active growth phase and when needed based on visual observation. Skin samples were obtained for histological analysis at week 3 and a study log documenting day-to-day observations of mice entering anagen (grey skin, the first visual clue to a new hair growth) were recorded. Treatments continued for up to 6 weeks. […] C3H mice were treated as described in Example 3. In addition to the 150 mg/ml Cotinus coggygria formulation prepared as a concentrate via heat processing, a lyophilized Cotinus extract powder was prepared as described above, as well as lower (60 mg/ml, 90 mg/ml, 120 mg/ml) and higher concentrations (up to 210 mg/ml) of Cotinus coggygria extracts (Table III). The treatment groups included a placebo, 5% minoxidil as positive control and an untreated group to serve as control for natural hair growth initiation and to observe placebo effects. 200 ul of test materials were applied topically to the area daily, 5 days a week. Images were taken at the first signs of anagen/active growth phase and when needed based on visual observation. Skin samples were obtained for histological analysis and a study log documenting day-to-day observations of mice entering anagen (grey skin) were recorded. Treatments continued for up to 6 weeks. […] Moreover, a dose-dependent increase in dorsal hair coverage was observed visually and documented by images, and also confirmed by histological analysis. […] C3H female mice clipped over the dorsal area once they have entered their prolonged telogen phase (about 8 weeks long) were topically treated once daily for 6 weeks with 200 μl 150 mg/ml of Cotinus coggygria extract or with 5% Minoxidil or with the combination of both agents. […] C3H hair growth studies were performed as described in earlier examples, with the addition of formulation agents to the cotinus extract preparation.

Question: For `CC(C)(C)NC(=O)[C@H]1CC[C@H]2[C@@H]3CC[C@H]4NC(=O)C=C[C@]4(C)[C@H]3CC[C@]12C` [Finasteride], which scalp hair growth [1] is on record?
Answer: Its scalp hair growth is “did not improve scalp hair growth”.

Question: For `Nc1cc(N2CCCCC2)nc(N)[n+]1[O-]` [5% Minoxidil, Minoxidil], which “% of mice entering anagen” value (C3H mice; Table II, day 9 of study, listed as Ave 5% Minoxidil) is on record?
Answer: Its value is 7%.

Question: And the “% of mice entering anagen” value (C3H mice; Table II, day 9 of study, listed as Best 5% Minoxidil)?
Answer: The value was 20%.

Question: What about the “% of mice entering anagen” value (C3H mice; Table II, day 10 of study, listed as Ave 5% Minoxidil) of the same compound?
Answer: Its value is 18%.

Question: And the “% of mice entering anagen” value (C3H mice; Table II, day 10 of study, listed as Best 5% Minoxidil)?
Answer: Its value is 40%.

Question: What about the “% of mice entering anagen” value (C3H mice; Table II, day 13 of study, listed as Ave 5% Minoxidil) of the same compound?
Answer: Its value is 18%.

Question: And the “% of mice entering anagen” value (C3H mice; Table II, day 13 of study, listed as Best 5% Minoxidil)?
Answer: Its value is 40%.

Question: What about the “% of mice entering anagen” value (C3H mice; Table II, day 14 of study, listed as Ave 5% Minoxidil) of the same compound?
Answer: The value was 31%.

Question: And the “% of mice entering anagen” value (C3H mice; Table II, day 14 of study, listed as Best 5% Minoxidil)?
Answer: The value was 80%.

Question: And the “% of mice entering anagen” value (C3H mice; Table II, day 16 of study, listed as Ave 5% Minoxidil)?
Answer: Its value is 31%.

Question: What about the “% of mice entering anagen” value (C3H mice; Table II, day 16 of study, listed as Best 5% Minoxidil) of the same compound?
Answer: Its value is 80%.

Question: And the “% of mice entering anagen” value (C3H mice; Table II, day 20 of study, listed as Ave 5% Minoxidil)?
Answer: Its value is 32%.

Question: What about the “% of mice entering anagen” value (C3H mice; Table II, day 20 of study, listed as Best 5% Minoxidil) of the same compound?
Answer: Its value is 80%.

Question: What about the “% of mice entering anagen” value (C3H mice; Table II, day 22 of study, listed as Ave 5% Minoxidil) of the same compound?
Answer: The value was 41%.

Question: What about the “% of mice entering anagen” value (C3H mice; Table II, day 22 of study, listed as Best 5% Minoxidil) of the same compound?
Answer: Its value is 80%.

Question: And the “% of mice entering anagen” value (C3H mice; Table II, day 23 of study, listed as Ave 5% Minoxidil)?
Answer: The value was 38%.

Question: And the “% of mice entering anagen” value (C3H mice; Table II, day 23 of study, listed as Best 5% Minoxidil)?
Answer: Its value is 80%.

Question: What about the “% of mice entering anagen” value (C3H mice; Table II, day 24 of study, listed as Ave 5% Minoxidil) of the same compound?
Answer: Its value is 36%.

Question: What about the “% of mice entering anagen” value (C3H mice; Table II, day 24 of study, listed as Best 5% Minoxidil) of the same compound?
Answer: Its value is 75%.

Question: What about the “% of mice entering anagen” value (C3H mice; Table II, day 27 of study, listed as Ave 5% Minoxidil) of the same compound?
Answer: Its value is 36%.

Question: What about the “% of mice entering anagen” value (C3H mice; Table II, day 27 of study, listed as Best 5% Minoxidil) of the same compound?
Answer: Its value is 75%.

Question: And the “% of mice entering anagen” value (C3H mice; Table II, day 29 of study, listed as Ave 5% Minoxidil)?
Answer: The value was 36%.

Question: What about the “% of mice entering anagen” value (C3H mice; Table II, day 29 of study, listed as Best 5% Minoxidil) of the same compound?
Answer: Its value is 100%.

Question: And the “% of mice entering anagen” value (C3H mice; Table II, day 31 of study, listed as Ave 5% Minoxidil)?
Answer: The value was 45%.

Question: And the “% of mice entering anagen” value (C3H mice; Table II, day 31 of study, listed as Best 5% Minoxidil)?
Answer: The value was 100%.

Question: What about the “% of mice entering anagen” value (C3H mice; Table II, day 35 of study, listed as Ave 5% Minoxidil) of the same compound?
Answer: Its value is 48%.

Question: What about the “% of mice entering anagen” value (C3H mice; Table II, day 35 of study, listed as Best 5% Minoxidil) of the same compound?
Answer: Its value is 100%.

Question: And the “% of mice entering anagen” value (C3H mice; Table II, day 42 of study, listed as Ave 5% Minoxidil)?
Answer: Its value is 63%.

Question: And the “% of mice entering anagen” value (C3H mice; Table II, day 42 of study, listed as Best 5% Minoxidil)?
Answer: The value was 100%.

Question: And the “% of mice entering anagen” value (C3H mice; Table II, day 43 of study, listed as Ave 5% Minoxidil)?
Answer: Its value is 87%.

Question: And the “% of mice entering anagen” value (C3H mice; Table II, day 43 of study, listed as Best 5% Minoxidil)?
Answer: Its value is 100%.

Question: And the “% of mice entering anagen” value (C3H mice; Table II, day 44 of study, listed as Ave 5% Minoxidil)?
Answer: Its value is 93%.

Question: What about the “% of mice entering anagen” value (C3H mice; Table II, day 44 of study, listed as Best 5% Minoxidil) of the same compound?
Answer: Its value is 100%.

Question: What about the “% of mice entering anagen” value (C3H mice; Table III, day 8 of study) of the same compound?
Answer: The value was 0%.

Question: And the “% of mice entering anagen” value (C3H mice; Table III, day 9 of study)?
Answer: The value was 0%.

Question: What about the “% of mice entering anagen” value (C3H mice; Table III, day 10 of study) of the same compound?
Answer: The value was 14%.

Question: And the “% of mice entering anagen” value (C3H mice; Table III, day 11 of study)?
Answer: Its value is 43%.

Question: What about the “% of mice entering anagen” value (C3H mice; Table III, day 14 of study) of the same compound?
Answer: Its value is 33%.

Question: And the “% of mice entering anagen” value (C3H mice; Table III, day 15 of study)?
Answer: Its value is 33%.

Question: What about the “% of mice entering anagen” value (C3H mice; Table III, day 16 of study) of the same compound?
Answer: Its value is 33%.

Question: And the “% of mice entering anagen” value (C3H mice; Table III, day 17 of study)?
Answer: The value was 20%.

Question: What about the “% of mice entering anagen” value (C3H mice; Table III, day 18 of study) of the same compound?
Answer: The value was 40%.

Question: What about the “% of mice entering anagen” value (C3H mice; Table III, day 21 of study) of the same compound?
Answer: The value was 80%.

Question: And the “% of mice entering anagen” value (C3H mice; Table III, day 22 of study)?
Answer: Its value is 80%.

Question: What about the “% of mice entering anagen” value (C3H mice; Table III, day 23 of study) of the same compound?
Answer: The value was 80%.

Question: And the “% of mice entering anagen” value (C3H mice; Table III, day 24 of study)?
Answer: The value was 80%.

Question: And the “% of mice entering anagen” value (C3H mice; Table III, day 25 of study)?
Answer: The value was 80%.

Question: And the “% of mice entering anagen” value (C3H mice; Table III, day 28 of study)?
Answer: The value was 80%.

Question: And the “% of mice entering anagen” value (C3H mice; Table III, day 29 of study)?
Answer: The value was 80%.

— patent publication US7704533B2, “Compositions and methods of inducing hair growth utilizing Continus coggygria” (J&J Consumer Companies, Inc., priority 2006, dated 2010)
